From patent US20210255193A1, “LYSINE REACTIVE PROBES AND USES THEREOF” (The Scripps Research Institute, priority 2017, published 2021)

What was measured:
Assay in all cases: competitive isoTOP-ABPP
Type in all cases: binding
[1] = target: T1, ADK Adenosine kinase (Homo sapiens, UniProt P55263); conditions: for isoTOP-ABPP ratio (R) at liganded lysine P55263_K88: 50 uM, in vitro, sol, 231
T1 construct: isoTOP-ABPP experiments performed in cell lysates (in vitro); endogenous in cells; host or cells: soluble proteome of human cancer cell lines (MDA-MB-231, Ramos, Jurkat)
T1 sequence (P55263 whole entry): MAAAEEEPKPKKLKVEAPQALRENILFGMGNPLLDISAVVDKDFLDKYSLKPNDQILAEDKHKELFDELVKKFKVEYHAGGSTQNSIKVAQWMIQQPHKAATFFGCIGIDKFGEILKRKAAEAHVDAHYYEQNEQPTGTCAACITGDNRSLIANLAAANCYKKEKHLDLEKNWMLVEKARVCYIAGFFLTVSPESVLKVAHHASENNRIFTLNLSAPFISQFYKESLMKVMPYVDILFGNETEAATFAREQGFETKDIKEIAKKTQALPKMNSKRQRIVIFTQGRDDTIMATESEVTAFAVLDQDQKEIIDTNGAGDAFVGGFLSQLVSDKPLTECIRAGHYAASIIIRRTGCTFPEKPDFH
Procedure: (§1) In vitro covalent fragment treatment for isoTOP-ABPP. All compounds were made up as solutions in DMSO (100×) and were used at a final concentration of 50 μM for activated esters and 100 μM for guanidinylating agents. For each profiling sample, 0.5 ml of lysate was treated with 5 μl of the 100× compound stock solution or 5 μl of DMSO. Samples were treated with activated esters for
(§2) STP-alkyne labeling and click chemistry. For concentration-dependent reactivity measurements by isoTOP-ABPP, 0.5 ml proteome aliquots were treated at ambient temperature with 1 mM STP-alkyne 1 (5 μl of 100 mM stock in DMSO) and 0.1 mM STP alkyne 1 (5 μl of 10 mM stock in DMSO), respectively. For competitive isoTOP-ABPP, after in vitro fragment treatment (detailed above), the samples were labeled for 1 h at ambient temperature with 0.1 mM STP-alkyne 1 (5 μl of 10 mM stock in DMSO). Samples were conjugated by copper-mediated azide-alkyne cycloaddition (CuAAC) to either the light (1 mM STP-alkyne or fragment treated) or heavy (0.1 mM STP-alkyne or DMSO treated) TEV tags (10 μl of 5 mM stocks in DMSO, final concentration=100 μM) using tris(2-carboxyethyl)phosphine hydrochloride
(§3) R value calculation and processing. The ratios of light and heavy MS1 peaks for each unique peptide were quantified with a CIMAGE software using default parameters (3 MS1 acquisitions per peak and signal to noise threshold set to 2.5). For reactivity measurements by isoTOP-ABPP, the R value was calculated from the ratio of MS1 peak areas, comparing the 1 mM STP alkyne sample (light TEV tag) with the 0.1 mM STP alkyne sample (heavy TEV tag). For competitive isoTOP-ABPP, the R value was calculated from the ratio of MS1 peak areas, comparing the DMSO treated sample (heavy TEV tag) with the compound treated sample (light TEV tag). […] Ratios for unique peptide entries are calculated for each experiment; overlapping peptides with the same modified lysine (for example, different charge states, MudPIT chromatographic steps or tryptic termini) are grouped together and the median ratio is reported as the final ratio (R). The peptide ratios reported by CIMAGE were further filtered to ensure the removal or correction of low-quality ratios in each individual data set. The quality filters applied were the following: removal of half tryptic peptides; for ratios with high standard deviations from the median (90% of the median or above) the lowest ratio was taken instead of the median; removal of peptides with R=20 and only a single MS2 event triggered during the elution of the parent ion; manual annotation of all the peptides with ratios of 20, removing any peptides with low quality elution profiles that remained after the previous curation steps (only done for competitive isoTOP-ABPP).
(§4) Cross-data processing for fragment screening. For compound treated samples, biological replicates of the same condition were averaged, if the standard deviation was below 60% of the mean; otherwise, for lysines with at least one R value <4 for a particular compound, the lowest value of the ratio set was taken. For lysines, where all R values for a particular compound were ≥4, the average was reported. For peptides containing several possible modified lysines, the lysine with the highest number of quantification events was used for analysis and the remaining, redundant peptides were reported as alternative modification sites. Peptides included in the aggregate dataset (those used for further bioinformatics and statistical analyses) were required to have been quantified in 2 experiments for competitive isoTOP-ABPP. Lysines were categorized as liganded, if they had at least one ratio R≥4 (hit fragments). For liganded lysines with R=20 for all liganding events, lysines were required to have been quantified with R=20 in two separate experiments and were further required to have been quantified with R<20 in one additional experiment.

[2] = target: T2, ISOC2 Isochorismatase domain-containing protein 2, mitochondrial (Homo sapiens, UniProt Q96AB3); conditions: for isoTOP-ABPP ratio (R) at liganded lysine Q96AB3_K178: 50 uM, in vitro, sol, 231
T2 construct: isoTOP-ABPP experiments performed in cell lysates (in vitro); endogenous in cells; host or cells: soluble proteome of human cancer cell lines (MDA-MB-231; Ramos and Jurkat also prepared)
T2 sequence (Q96AB3 1-205): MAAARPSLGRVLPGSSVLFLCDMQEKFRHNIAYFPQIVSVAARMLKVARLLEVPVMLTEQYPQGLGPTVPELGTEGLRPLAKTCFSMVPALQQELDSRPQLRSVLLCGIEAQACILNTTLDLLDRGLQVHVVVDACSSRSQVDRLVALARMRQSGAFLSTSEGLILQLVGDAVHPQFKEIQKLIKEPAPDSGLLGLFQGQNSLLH
Procedure: as §1, §2, §3, §4

[3] = target: T3, HK1 Hexokinase-1 (Homo sapiens, UniProt P19367); conditions: for isoTOP-ABPP ratio (R) at liganded lysine P19367_K510: 50 uM, in vitro, sol, 231
T3 construct: isoTOP-ABPP experiments performed in cell lysates (in vitro); endogenous in cells; host or cells: soluble proteome of human cancer cell lines (MDA-MB-231; Ramos and Jurkat also prepared)
T3 sequence (P19367 1-917): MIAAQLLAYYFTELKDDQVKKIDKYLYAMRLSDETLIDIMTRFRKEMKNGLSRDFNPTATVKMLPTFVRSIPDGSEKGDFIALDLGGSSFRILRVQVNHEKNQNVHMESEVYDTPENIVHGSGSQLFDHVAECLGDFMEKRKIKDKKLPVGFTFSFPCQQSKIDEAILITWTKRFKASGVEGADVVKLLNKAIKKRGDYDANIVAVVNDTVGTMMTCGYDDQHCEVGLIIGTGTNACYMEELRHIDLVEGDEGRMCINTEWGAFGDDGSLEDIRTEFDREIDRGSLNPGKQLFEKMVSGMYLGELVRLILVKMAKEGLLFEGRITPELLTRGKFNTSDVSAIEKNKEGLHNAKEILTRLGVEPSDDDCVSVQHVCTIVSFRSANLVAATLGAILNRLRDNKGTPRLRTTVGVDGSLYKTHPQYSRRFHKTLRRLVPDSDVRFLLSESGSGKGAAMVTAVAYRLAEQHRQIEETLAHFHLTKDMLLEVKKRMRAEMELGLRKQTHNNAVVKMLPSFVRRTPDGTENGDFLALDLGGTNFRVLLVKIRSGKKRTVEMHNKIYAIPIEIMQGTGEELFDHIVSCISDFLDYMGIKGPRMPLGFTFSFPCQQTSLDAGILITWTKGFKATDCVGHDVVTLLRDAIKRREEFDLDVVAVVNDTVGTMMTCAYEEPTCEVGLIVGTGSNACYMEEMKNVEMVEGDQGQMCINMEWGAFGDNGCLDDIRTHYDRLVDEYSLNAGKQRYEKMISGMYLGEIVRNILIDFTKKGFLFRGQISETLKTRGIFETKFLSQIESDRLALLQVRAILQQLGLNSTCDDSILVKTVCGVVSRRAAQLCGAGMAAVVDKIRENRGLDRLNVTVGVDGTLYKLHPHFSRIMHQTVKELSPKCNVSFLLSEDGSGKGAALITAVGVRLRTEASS
Procedure: as §1, §2, §3, §4

| Compound | isoTOP-ABPP ratio (R) at liganded lysine P55263_K88 [1] | isoTOP-ABPP ratio (R) at liganded lysine Q96AB3_K178 [2] | isoTOP-ABPP ratio (R) at liganded lysine P19367_K510 [3] | isoTOP-ABPP ratio, lysine P55263_K88 ([1]; 50 uM_231_sol_in vitro) | isoTOP-ABPP ratio, lysine Q96AB3_K178 ([2]; 50 uM_231_sol_in vitro) | isoTOP-ABPP ratio, lysine P19367_K510 ([3]; 50 uM_231_sol_in vitro) | also measured |
| --- | --- | --- | --- | --- | --- | --- | --- |
| O=C(Oc1ccc([N+](=O)[O-])cc1[N+](=O)[O-])C1CCN(C(=O)OCc2ccccc2)CC1 [fragment 34, 1-Benzyl 4-(2,4-dinitrophenyl) piperidine-1,4-dicarboxylate] | 20.0 | 1.1 | 20.0 | – | – | – | – |
| O=C(Oc1ccc([N+](=O)[O-])cc1[N+](=O)[O-])c1ccc2ccccc2n1 [fragment 35, 2,4-Dinitrophenyl quinoline-2-carboxylate] | 0.6 | 1.3 | 1.1 | – | – | – | – |
| O=C(CCc1coc2cc(F)ccc2c1=O)Oc1ccc([N+](=O)[O-])cc1[N+](=O)[O-] [fragment 36, 2,4-Dinitrophenyl 3-(7-fluoro-4-oxo-4H-chromen-3-yl)propanoate] | 20.0 | 1.7 | 3.7 | – | – | – | – |
| O=C(Oc1ccc([N+](=O)[O-])cc1[N+](=O)[O-])c1ccc(-c2ccccc2)cc1 [fragment 37, 2,4-Dinitrophenyl [1,1′-biphenyl]-4-carboxylate] | 0.8 | 0.9 | 0.9 | – | – | – | – |
| O=C(CC12CC3CC(CC(C3)C1)C2)Oc1ccc([N+](=O)[O-])cc1[N+](=O)[O-] [fragment 38, 2,4-Dinitrophenyl 2-(adamantan-1-yl)acetate] | 0.9 | 0.9 | 1.7 | – | – | – | – |
| O=C(Oc1ccc([N+](=O)[O-])cc1[N+](=O)[O-])c1ccc(Oc2ccccc2)cc1 [fragment 39, 2,4-Dinitrophenyl 4-phenoxybenzoate] | 0.9 | 0.9 | 0.9 | – | – | – | – |
| CC(C)(C)OC(=O)NCCCC(=O)Oc1ccc([N+](=O)[O-])cc1[N+](=O)[O-] [fragment 41, 2,4-Dinitrophenyl 4-((tert-butoxycarbonyl)amino)butanoate] | 1.5 | 1.9 | 12.6 | – | – | – | – |
| O=C(Oc1ccc([N+](=O)[O-])cc1[N+](=O)[O-])C(c1ccccc1)(c1ccccc1)c1ccccc1 [fragment 42, 2,4-Dinitrophenyl 2,2,2-triphenylacetate] | 1.0 | 1.0 | 0.8 | – | – | – | – |
| CC(=O)Oc1ccc([N+](=O)[O-])cc1[N+](=O)[O-] [fragment 43, 2,4-Dinitrophenyl acetate] | 0.9 | 1.1 | 20.0 | – | – | – | – |
| N#Cc1ccc(C(=O)Oc2ccc([N+](=O)[O-])cc2[N+](=O)[O-])cc1 [fragment 44, 2,4-Dinitrophenyl 4-cyanobenzoate] | – | – | – | 0.5 | 1.3 | 1.2 | – |
| O=C(CCc1ccc2c(c1)OCO2)Oc1ccc([N+](=O)[O-])cc1[N+](=O)[O-] [fragment 45, 2,4-Dinitrophenyl 3-(benzo[d][1,3]dioxol-5-yl)propanoate] | – | – | – | 1.3 | 1.8 | 5.3 | – |
| O=C(ON1C(=O)CCC1=O)c1cc(C(F)(F)F)cc(C(F)(F)F)c1 [fragment 46, 3,5-Bis(trifluoromethyl)benzoic acid NHS ester] | – | – | – | 0.8 | 1.5 | 1.0 | – |
| O=C(Oc1c(F)c(F)c(C(F)(F)F)c(F)c1F)c1cc(C(F)(F)F)cc(C(F)(F)F)c1 [fragment 47, 2,3,5,6-Tetrafluoro-4-(trifluoromethyl)phenyl 3,5-bis(trifluoromethyl)benzoate] | – | – | – | 0.8 | 1.2 | 0.9 | – |
| O=C(Oc1c(F)c(F)cc(F)c1F)c1cc(C(F)(F)F)cc(C(F)(F)F)c1 [fragment 48, 2,3,5,6-Tetrafluorophenyl 3,5-bis(trifluoromethyl)benzoate] | – | – | – | 0.9 | 0.9 | 0.8 | – |
| COC(=O)NC(=NC(=O)OCC1c2ccccc2-c2ccccc21)n1cccn1 [fragment 49, N-Methoxycarbonyl-N′-9-fluorenylmethoxycarbonyl-pyrazole-1-carboxamidine] | – | – | – | – | – | – | isoTOP-ABPP ratio, lysine P55263_K88 ([1]; 100 uM_231_sol_in vitro): 1.2; isoTOP-ABPP ratio, lysine Q96AB3_K178 ([2]; 100 uM_231_sol_in vitro): 1.1; isoTOP-ABPP ratio, lysine P19367_K510 ([3]; 100 uM_231_sol_in vitro): 1.1 |
| CC(C)(C)OC(=O)N=C(NC(=O)OC(C)(C)C)n1cccn1 [fragment 50, reference compound] | – | – | – | – | – | – | isoTOP-ABPP ratio, lysine P55263_K88 ([1]; 100 uM_231_sol_in vitro): 1.0; isoTOP-ABPP ratio, lysine Q96AB3_K178 ([2]; 100 uM_231_sol_in vitro): 1.1; isoTOP-ABPP ratio, lysine P19367_K510 ([3]; 100 uM_231_sol_in vitro): 1.0 |
| NC(=O)c1cc(C(F)(F)F)cc(C(F)(F)F)c1 [fragment 51, reference compound] | – | – | – | 0.8 | 0.9 | 1.0 | – |
